Target: T1, ehRad51 (Entamoeba histolytica, UniProt C4M4K4)
T1 sequence (C4M4K4 1-366): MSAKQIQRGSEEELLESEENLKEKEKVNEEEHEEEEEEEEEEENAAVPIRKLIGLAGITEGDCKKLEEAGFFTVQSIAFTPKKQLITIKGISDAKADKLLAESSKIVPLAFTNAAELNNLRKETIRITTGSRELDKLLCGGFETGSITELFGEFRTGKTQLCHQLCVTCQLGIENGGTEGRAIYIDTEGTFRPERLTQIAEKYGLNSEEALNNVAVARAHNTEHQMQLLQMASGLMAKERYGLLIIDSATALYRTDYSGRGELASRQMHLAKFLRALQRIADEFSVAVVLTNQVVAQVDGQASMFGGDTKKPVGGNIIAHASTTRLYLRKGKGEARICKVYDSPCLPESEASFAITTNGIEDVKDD
Experiment: oligonucleotide DNA strand exchange
Assay type: biochemical

`O=S(=O)(O)c1cc(N=C=S)ccc1C=Cc1ccc(N=C=S)cc1S(=O)(=O)O` [DIDS, 4,4′-diisothiocyanostilbene-2,2′-disulfonic acid] showed an IC50 of 18.5 µM.

— paper PMC5125864 (Molecular and biochemical parasitology, 2016)
